How the values were obtained:
Test in all cases: Test B pre-/postemergence plant response
Format in all cases: in vivo
Details in all cases: Preemergence
[1] = test system: corn (Zea mays)
In short: (§1)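 Seeds were sown and sprayed preemergence, while plants at 2 to 18 cm (1- to 4-leaf stage) got postemergence sprays. Compounds were formulated in a non-phytotoxic solvent mixture with surfactant. After 13 to 15 days in a greenhouse, injury was rated visually against untreated controls, 0 (no effect) to 100 (complete control).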

[2] = test system: wheat (Triticum aestivum)
In short: as §1

[3] = test system: giant foxtail (Setaria faberii)
In short: as §1

[4] = test system: green foxtail (Setaria viridis)
In short: as §1

[5] = test system: lambsquarters (Chenopodium album)
In short: as §1

[6] = test system: soybean (Glycine max)
In short: as §1

[7] = test system: cocklebur (Xanthium strumarium)
In short: as §1

[8] = test system: velvetleaf (Abutilon theophrasti)
In short: as §1

[9] = test system: goosegrass (Eleusine indica)
In short: as §1

[10] = test system: kochia (Kochia scoparia)
In short: as §1

[11] = test system: Russian thistle (Salsola iberica)
In short: as §1

[12] = test system: yellow nutsedge (Cyperus esculentus)
In short: as §1

[13] = test system: woolly cupgrass (Eriochloa villosa)
In short: as §1

[14] = test system: bermudagrass (Cynodon dactylon)
In short: as §1

[15] = 16 g ai/ha, scale 0 to 100 (0 no effect, 100 complete control)
[16] = 31 g ai/ha, 0 to 100 scale, 0 no effect, 100 complete control

SMILES: Cc1cn(-c2ccc(Cl)cc2)nc1-c1c(O)cnn(C)c1=O [Compound 30, 4-[1-(4-chlorophenyl)-4-methyl-1H-pyrazol-3-yl]-5-hydroxy-2-methyl-3(2H)-pyridazinone]
- Corn plant response rating ([1]; 8 g ai/ha, scale 0 to 100): 0
- Corn plant response rating (crop injury, 0 = no effect, 100 = complete kill) at 16 g/ha ([1]; Zea mays, pre-emergence, 16 g ai/ha, scale 0 to 100 (0 no effect, 100 complete control)): 5%
- Corn plant response rating (crop injury, 0 = no effect, 100 = complete kill) at 31 g/ha ([1]; Zea mays, pre-emergence, 31 g ai/ha, 0 to 100 scale, 0 no effect, 100 complete control): 5%
- Corn plant response rating (crop injury, 0 = no effect, 100 = complete kill) at 62 g/ha ([1]; Zea mays, pre-emergence, 62 g ai/ha, scale 0 to 100): 5%
- Wheat plant response rating ([2]; 8 g ai/ha, scale 0 to 100): 0
- plant injury at 16 g/ha ([2]; Triticum aestivum, pre-emergence, 16 g ai/ha, scale 0 to 100 (0 no effect, 100 complete control), read-out: Plant response rating, Wheat): 0%
- plant injury at 31 g/ha ([2]; Triticum aestivum, pre-emergence, 31 g ai/ha, 0 to 100 scale, 0 no effect, 100 complete control, read-out: Plant response rating, Wheat): 0%
- plant injury at 62 g/ha ([2]; Triticum aestivum, pre-emergence, 62 g ai/ha, scale 0 to 100, read-out: Plant response rating, Wheat): 10%
- Foxtail, Giant plant response rating ([3]; 8 g ai/ha, scale 0 to 100): 60
- pest or weed control at 16 g/ha ([3]; Setaria faberi, pre-emergence, 16 g ai/ha, scale 0 to 100 (0 no effect, 100 complete control), read-out: Plant response rating, Foxtail, Giant): 98%
- pest or weed control at 31 g/ha ([3]; Setaria faberi, pre-emergence, 31 g ai/ha, 0 to 100 scale, 0 no effect, 100 complete control, read-out: Plant response rating, Foxtail, Giant): 100%
- pest or weed control at 62 g/ha ([3]; Setaria faberi, pre-emergence, 62 g ai/ha, scale 0 to 100, read-out: Plant response rating, Foxtail, Giant): 100%
- Foxtail, Green plant response rating ([4]; 8 g ai/ha, scale 0 to 100): 0
- pest or weed control at 16 g/ha ([4]; Setaria viridis, pre-emergence, 16 g ai/ha, scale 0 to 100 (0 no effect, 100 complete control), read-out: Plant response rating, Foxtail, Green): 0%
- pest or weed control at 31 g/ha ([4]; Setaria viridis, pre-emergence, 31 g ai/ha, 0 to 100 scale, 0 no effect, 100 complete control, read-out: Plant response rating, Foxtail, Green): 100%
- pest or weed control at 62 g/ha ([4]; Setaria viridis, pre-emergence, 62 g ai/ha, scale 0 to 100, read-out: Plant response rating, Foxtail, Green): 100%
- pest or weed control at 16 g/ha ([5]; Chenopodium album, pre-emergence, 16 g ai/ha, scale 0 to 100 (0 no effect, 100 complete control), read-out: Plant response rating, Lambsquarters): 0%
- pest or weed control at 31 g/ha ([5]; Chenopodium album, pre-emergence, 31 g ai/ha, 0 to 100 scale, 0 no effect, 100 complete control, read-out: Plant response rating, Lambsquarters): 0%
- pest or weed control at 62 g/ha ([5]; Chenopodium album, pre-emergence, 62 g ai/ha, scale 0 to 100, read-out: Plant response rating, Lambsquarters): 0%
- Lambsquarters plant response rating ([5]; 8 g ai/ha, scale 0 to 100): 0
- plant injury at 16 g/ha ([6]; Glycine max, pre-emergence, 16 g ai/ha, scale 0 to 100 (0 no effect, 100 complete control), read-out: Plant response rating, Soybean): 0%
- plant injury at 31 g/ha ([6]; Glycine max, pre-emergence, 31 g ai/ha, 0 to 100 scale, 0 no effect, 100 complete control, read-out: Plant response rating, Soybean): 0%
- plant injury at 62 g/ha ([6]; Glycine max, pre-emergence, 62 g ai/ha, scale 0 to 100, read-out: Plant response rating, Soybean): 0%
- Soybean plant response rating ([6]; 8 g ai/ha, scale 0 to 100): 0
- Cocklebur plant response rating ([7]; 8 g ai/ha, scale 0 to 100): 0
- pest or weed control at 16 g/ha ([7]; Xanthium strumarium, pre-emergence, 16 g ai/ha, scale 0 to 100 (0 no effect, 100 complete control), read-out: Plant response rating, Cocklebur): 0%
- pest or weed control at 31 g/ha ([7]; Xanthium strumarium, pre-emergence, 31 g ai/ha, 0 to 100 scale, 0 no effect, 100 complete control, read-out: Plant response rating, Cocklebur): 0%
- pest or weed control at 62 g/ha ([7]; Xanthium strumarium, pre-emergence, 62 g ai/ha, scale 0 to 100, read-out: Plant response rating, Cocklebur): 0%
- pest or weed control at 16 g/ha ([8]; Abutilon theophrasti, pre-emergence, 16 g ai/ha, scale 0 to 100 (0 no effect, 100 complete control), read-out: Plant response rating, Velvetleaf): 0%
- pest or weed control at 31 g/ha ([8]; Abutilon theophrasti, pre-emergence, 31 g ai/ha, 0 to 100 scale, 0 no effect, 100 complete control, read-out: Plant response rating, Velvetleaf): 0%
- pest or weed control at 62 g/ha ([8]; Abutilon theophrasti, pre-emergence, 62 g ai/ha, scale 0 to 100, read-out: Plant response rating, Velvetleaf): 0%
- Velvetleaf plant response rating ([8]; 8 g ai/ha, scale 0 to 100): 0
- pest or weed control at 16 g/ha ([9]; Eleusine indica, pre-emergence, 16 g ai/ha, scale 0 to 100 (0 no effect, 100 complete control), read-out: Plant response rating, Goosegrass): 80%
- pest or weed control at 31 g/ha ([9]; Eleusine indica, pre-emergence, 31 g ai/ha, 0 to 100 scale, 0 no effect, 100 complete control, read-out: Plant response rating, Goosegrass): 100%
- pest or weed control at 62 g/ha ([9]; Eleusine indica, pre-emergence, 62 g ai/ha, scale 0 to 100, read-out: Plant response rating, Goosegrass): 100%
- Goosegrass plant response rating ([9]; 8 g ai/ha, scale 0 to 100): 80
- Plant response rating, Kochia [10, 15]: 0
- Plant response rating, Kochia [10, 16]: 0
- Plant response rating, Kochia ([10]; 62 g ai/ha, scale 0 to 100): 0
- Kochia plant response rating ([10]; 8 g ai/ha, scale 0 to 100): 0
- Plant response rating, Russian Thistle [11, 15]: 0
- Plant response rating, Russian Thistle [11, 16]: 0
- Plant response rating, Russian Thistle ([11]; 62 g ai/ha, scale 0 to 100): 0
- Russian Thistle plant response rating ([11]; 8 g ai/ha, scale 0 to 100): 0
- pest or weed control at 16 g/ha ([12]; Cyperus, pre-emergence, 16 g ai/ha, scale 0 to 100 (0 no effect, 100 complete control), read-out: Plant response rating, Nutsedge, Yellow): 0%
- pest or weed control at 31 g/ha ([12]; Cyperus, pre-emergence, 31 g ai/ha, 0 to 100 scale, 0 no effect, 100 complete control, read-out: Plant response rating, Nutsedge, Yellow): 0%
- pest or weed control at 62 g/ha ([12]; Cyperus, pre-emergence, 62 g ai/ha, scale 0 to 100, read-out: Plant response rating, Nutsedge, Yellow): 0%
- Nutsedge, Yellow plant response rating ([12]; 8 g ai/ha, scale 0 to 100): 0
- pest or weed control at 16 g/ha ([13]; Eriochloa villosa, pre-emergence, 16 g ai/ha, scale 0 to 100 (0 no effect, 100 complete control), read-out: Plant response rating, Cupgrass, Woolly): 75%
- pest or weed control at 31 g/ha ([13]; Eriochloa villosa, pre-emergence, 31 g ai/ha, 0 to 100 scale, 0 no effect, 100 complete control, read-out: Plant response rating, Cupgrass, Woolly): 98%
- pest or weed control at 62 g/ha ([13]; Eriochloa villosa, pre-emergence, 62 g ai/ha, scale 0 to 100, read-out: Plant response rating, Cupgrass, Woolly): 100%
- Cupgrass, Woolly plant response rating ([13]; 8 g ai/ha, scale 0 to 100): 50
- pest or weed control at 16 g/ha ([14]; Cynodon dactylon, pre-emergence, 16 g ai/ha, scale 0 to 100 (0 no effect, 100 complete control), read-out: Plant response rating, Bermudagrass): 90%
- pest or weed control at 31 g/ha ([14]; Cynodon dactylon, pre-emergence, 31 g ai/ha, 0 to 100 scale, 0 no effect, 100 complete control, read-out: Plant response rating, Bermudagrass): 100%
- pest or weed control at 62 g/ha ([14]; Cynodon dactylon, pre-emergence, 62 g ai/ha, scale 0 to 100, read-out: Plant response rating, Bermudagrass): 100%
- Bermudagrass plant response rating ([14]; 8 g ai/ha, scale 0 to 100 (0 no effect, 100 complete control)): 60
